Experimental data as given in patent US11135231B2, “Methods and compositions for prevention and treatment of Apicomplexan infections” (Tufts Medical Center, Inc., priority 2016, dated 2021).

Key:
Cryptosporidium parvum [1] = assay: Host cell ATP assay (CellTiter-Glo) of C. parvum-infected Caco2 cells; format: cell-based; details: Caco-2, host cell ATP at 48 h post-infection, read-out: EC50 against C. parvum
Procedure: (§1) The effect of Tartrolon D/E on Cryptosporidium proliferation was evaluated by measuring host cell ATP levels (CellTiter-Glo® Luminescent Cell Viability Assay, Promega). Caco2 cells, having been infected with 2×10^5 C. parvum oocysts for 7 hours, were treated with dilutions of tartrolon D/E or DMSO (control) and cellular ATP levels were measured at the 48-hour time point post-infection.

Cryptosporidium parvum [2] = assay: Morphology of C. parvum parasites after treatment (immunofluorescence); format: cell-based; details: 100 nM, 9 hours (FIG. 6B)
From the text: Insets (upper right in each image) are enlargements of boxed regions (dashes). Red: Rabbit α gp15 detected with Alexafluor 594-conjugated goat anti-rabbit IgG secondary antibody; blue: DAPI; scale=20 μm; insets=5 μm.
(§2) The morphology of treated parasites (FIG. 6B) was similar to that seen with T. gondii, in which the vacuole contained intact nuclei but no intact merozoites.

P. falciparum strains = assay: 3H hypoxanthine incorporation assay of P. falciparum strains in human red blood cells; format: cell-based, Plasmodium falciparum
Procedure: The potency of the compounds of the invention against multi-drug resistant P. falciparum strains was tested. Parasites were cultured in 96-well plates in human red blood cells at 0.5% initial parasitemia for 72 hours in the presence of dilutions of tartrolon D/E (specifically, D2 as the starting material in FIG. 11A), purified tartrolon E (FIG. 11C), dihydroartemisinin (DHA, as a positive control in FIG. 11B), or DMSO (as a negative control). Parasites proliferation was then determined by ^3H hypoxanthine incorporation.
Specifically, parasitized red blood cells (pRBCs) were grown in 0.5% Albumax I (Thermo Fisher Scientific). Assays were set up in 96-well plates at 0.5% initial parasitemia and 0.5% hematocrit. Parasites were exposed to various concentrations of Tartrolon D or E and dihydroartemisinin (DHA) for 48 hours and then pulsed with 0.5 microcuries of tritium-labeled hypoxanthine Moravek (MT-700) for another 24 hours. At the end of 72 hours, assay plates were processed through an Inotech cell harvester and collected on Inotech glass fiber filters. Filters were transferred to Omniplate-96 cassettes (Perkin Elmer) and dried overnight at room temperature. About […] of Microscint-O scintillation cocktail (Perkin Elmer) was added to each well. Each well was counted for 2 minutes on a Packard Topcount scintillation counter. The uptake of radiolabeled hypoxanthine by compound-treated pRBCs was compared relative to uptake by DMSO solvent-treated controls. […] The starting material used as the active reagent in FIG. 11C was tartrolon E, purified as follows: extract from the bacterial pellet of the Teredinibacter turnerae T7901 was purified by reversed phase HPLC using diode array detection. A C18 column (Phenomenex CHO-7878, 100×10 mm) was employed with an isocratic mobile phase (85% acetontrile in water, 3.5 mL/min) to yield tartrolon E (4.7 mg, retention time 8 min).

[3] = test system: three human tumor cell lines; details: cited from earlier work
Toxoplasma gondii = assay: Immunofluorescence assay (anti-SAG1) of T. gondii-infected HFF cells; format: cell-based; details: T. gondii in HFF cells, FIG. 4B/4C
Procedure: FIGS. 2B and 2C show results for experiments that were conducted as for FIG. 2A, except that 24 hours after addition of the fractions, the infected HFF cells were processed for immunofluorescence assays. Briefly, infected and treated HFF cells that had been grown on coverslips in 6-well plates were fixed with methanol and parasites were detected using antibody to the SAG1 T. gondii surface antigen that was then detected with a red-fluorescence tagged secondary antibody. Host nuclei were stained with blue fluorescent marker DAPI (4′,6-diamidino-2-phenylindole). Host nuclei were clearly visible (blue) in all cell populations in both FIGS. 2B and 2C. Consistent with the trypan blue results, extensive red fluorescence was visible in cells treated with the control (DMSO) in FIG. 2C, meaning these cells were highly infected with the parasites.

T. gondii = assay: MTS host cell viability readout of T. gondii-infected HFF cells; format: cell-based; details: Toxoplasma gondii, read-out: effective concentration at which 50% of the host cells survived (EC50)
Procedure: (§3) Readouts of host cell viability were used to quantify the dose-response of tartrolon D/E against T. gondii. Human foreskin fibroblast (HFF) cells, after having been infected by T. gondii for 24 hours, were treated with dilutions of tartrolon D/E that have been purified as in Example 2, or DMSO (control) for 72 hours. Host cell viability was then measured by MTS assay (CellTiter 96® AQueous One Solution Cell Proliferation Assay, Promega). The effective concentration at which 50% of the host cells survived (EC50) was about 5 nM (FIG. 4A).

HFF cell = HFF cell viability by MTS assay; format: cell-based, human; details: at the concentrations tested
Procedure: as §3
At the concentrations tested, tartrolon D/E had no effect on HFF cell viability as measured by MTS assay, indicating likely safety for in vivo administration. […] The aberration in the parasite morphology, stark when compared to untreated cell infection shown in the left columns of FIGS. 4B and 4C, provides direct evidence of irreversible inhibition and killing of the target parasite by compounds of the invention.

Caco2 cell = Caco2 cell viability; format: cell-based; details: concentrations up to 500 nM
Procedure: as §1, §2

[4] = test system: Bovine Turbinate (BT) cells (ATCC #CRL-1390); assay: Toxicity for mammalian cells, CellTiter Glo cell viability assay; format: cell-based; details: 24 hours
Procedure: Toxicity of the compounds of the invention for mammalian cells was determined. Bovine Turbinate (BT) cells (ATCC #CRL-1390) are a primary cell line (not a transformed cancer cell line) and were used to provide a preliminary evaluation of the toxicity of tartrolon D/E for mammalian cells. Briefly, BT cells were cultured in the presence of increasing starting concentrations of Tartrolon D/E for 24 hours. Cell proliferation was measured using CellTiter Glo Cell Viability Assay (Promega) and the data was analyzed with GraphPad Prism.

Plasmodium berghei = assay: Plasmodium berghei-luciferase infection in mice, IVIS imaging; format: in vivo; details: IVIS image FIG. 14B, 1 of the 4 control mice
Procedure: Mice were infected with Plasmodium berghei expressing luciferase. 48 hours post infection mice were treated with tartrolon D/E (specifically, D2) initially solubilized in 2% methylcellulose and 0.5% Tween80 by intraperitoneal injection for 5 days, once per day. Control mice were treated with vehicle alone. Seven days after infection, mice were given luciferase substrate (150 mg/kg D-luciferin Potassium salt in PBS (Goldbio)) and imaged in an IVIS Lumina II to quantify level of infection.

[5] = test system: apicomplexan parasites tested; assay: Summary of in vitro EC50 against the apicomplexan parasites tested; format: cell-based; details: general range
From the text: For therapeutic purposes, the compounds of the invention may be formulated into a pharmaceutical composition, by mixing a therapeutically effective amount of the compound(s) of the invention with a pharmaceutically acceptable excipient, carrier, or diluent, and optionally in combination with one or more additional active agents, e.g., a second anti-parasitic agent. […] With an EC50 value as low as the picomolar to nanomolar level provides further confidence that the active ingredients, once administered in vivo, would likely achieve the expected anti-parasitic effects. According to an aspect of the present invention, tartrolon D and/or tartrolon E can be used as a therapeutic for treatment or prevention of human and animal diseases caused by various protozoan parasites.

SMILES	EC50 (Cryptosporidium parvum [1])	morphology of treated parasites (Cryptosporidium parvum [2])	EC50 (P. falciparum strains; Plasmodium falciparum, 3D7, Erythrocyte, parasite line 3D7)	EC50 (P. falciparum strains; Plasmodium falciparum, DD2, Erythrocyte, parasite line Dd2)	EC50 (P. falciparum strains; Plasmodium falciparum, Erythrocyte, parasite line 7G8)	EC50 (P. falciparum strains; Plasmodium falciparum, Erythrocyte, parasite line 2012 Indian Isolate (Goa))	EC50 (P. falciparum strains; Plasmodium falciparum, Erythrocyte, parasite line D6)	EC50 (P. falciparum strains; Plasmodium falciparum, Erythrocyte, parasite line V1S)	EC50 (P. falciparum strains; Plasmodium falciparum, HB3, Erythrocyte, parasite line HB3)	EC50 (P. falciparum strains; Plasmodium falciparum, NF54, Erythrocyte, parasite line NF54)	EC50 (P. falciparum strains; Plasmodium falciparum, TM90C2A, Erythrocyte, parasite line TM90C2A)	EC50 (P. falciparum strains; parasite line 3D7)	cytotoxic activity [3]	parasite morphology (Toxoplasma gondii)	EC50 (T. gondii)	effect on HFF cell viability (HFF cell)	effect on Caco2 cell viability (Caco2 cell)	toxic dose at which 50% of the cells were killed [4]	treated mice with significant areas with no parasites (Plasmodium berghei)	EC50 [5]
C[C@@H]1C(=O)C[C@@H](O)CC/C=C/C=C\CC[C@H](C)OC(=O)C(O)[C@]2(O)O[C@@H](CC[C@H]2C)[C@H](C)C(=O)C[C@@H](O)CC/C=C/C=C\CC[C@H](C)OC(=O)C(O)[C@]2(O)O[C@H]1CC[C@H]2C (some centres unmarked) [Tartrolon D, tartrolon D]	~12 nM	most parasites did not progress past the single cell stage	0.11 nM	0.28 nM	0.18 nM	0.26 nM	0.14 nM	0.31 nM	0.13 nM	0.2 nM	0.16 nM	0.19 nM	strong cytotoxic activity							
C[C@@H]1C(=O)C[C@@H](O)CC/C=C/C=C\CC[C@H](C)OC(=O)C(O)[C@]2(O)O[C@@H](CC[C@H]2C)[C@H](C)C(=O)C[C@@H](O)CC/C=C/C=C\CC[C@H](C)OC(=O)C(O)[C@]2(O)O[C@H]1CC[C@H]2C (some centres unmarked) [Tartrolon D/E]														aberrant morphology	~5 nM	no effect	no effect	1.14 µM	4 of the 5	0.1 to 16 nM
